Test results published in US20100050299A1, “POST-HARVEST TREATMENT OF FRUITS WITH AN ANTIFUNGAL COMPOSITION” (priority 2006, published 2010).

Key:
[1] = test system: Colletotridcum musae CBS19231; test: Treatment of bananas wounded with a cork borer and contaminated with mould spores, then dipped (Example 1); assay type: in vivo; settings: for Number of wounds showing mould growth/Total number of wounds: after 15 days at 21° C., dipped one minute, 1000 ppm natamycin, 240 mM potassium phosphite, 6 wounds (3 bananas with 2 wounds per banana); for wounds showing mould growth: after 15 days, out of 6 wounds
Description: (§1) In this experiment organic bananas, Sabrosa® from the Dominican Republic, were used. The bananas were obtained from a local retailer in The Netherlands. The bananas were treated with spores of the phytopathogenic mould Colletotridcum musae CBS19231. The mould spores were obtained using well-known methods. The bananas were injured according to the method described by de Lapere de Bellaire and Dubois (1987). Bananas were wounded two times using a cork borer followed by contamination with approximately 2.5×10^4 mould spores of C. musae CBS19231 per wound. After incubation for 4 hours at room temperature, the bananas were dipped for one minute in one of the following compositions: a) no treatment (control 1), b) dipped in water (control 2), c) dipped in 1000 ppm natamycin, d) dipped in 240 mM of potassium phosphite, e) dipped in 1000 ppm of natamycin+240 mM of potassium phosphite. The experiment was executed in triplo; the natamycin and potassium phosphite solution were prepared using well-known methods. All compositions contained 0.1% (v/v) of the sticking agent Bond® (Loveland Industries Ltd.) and 0.14% (v/v) of the surfactant Zipper® (Asepta BV, The Netherlands). After this treatment the bananas were incubated in closed boxes at 21° C. at elevated humidity. Each day the bananas were judges visually on mould development.

[2] = test system: Colletotridcum musae CBS19231; test: Treatment of bananas with wounds made with a knife at the stalk (Example 2); assay type: in vivo; settings: for wounds/bananas with mould growth: after 15 days of incubation, 3 bananas, wound at the stalk; for Number of wounds showing mould growth/Total number of wounds: after 15 days, 3 wounds (3 bananas with 1 wound made at the stalk per banana)
Description: as §1
The experiment described in this example was done identically compared to the experiment described in Example 1, with the proviso that the wounds were made with a knife at the stalk of the bananas.

[3] = test system: Colletotridcum musae CBS19231; test: Treatment of freshly harvested banana clusters (Example 3); assay type: in vivo; settings: for bananas of the clusters on which moulds were observed: after 15 days of incubation, 12 bananas; for Number of bananas showing mould growth/Total number of bananas: after 15 days, freshly harvested, 12 bananas (3 clusters with 4 bananas per cluster)
Description: as §1
(§2) In this experiment freshly harvested bananas were used. A few days after harvesting and the de-latexing treatment to remove latex which is leaking from the wounds using well-known methods, the bananas were infected with mould spores and treated as described in Example 1. For each composition, 3 clusters comprising 4 bananas per cluster were used (experiment done in triplo).

[4] = test system: Colletotridcum musae CBS19231; test: Treatment of freshly harvested banana clusters, new wounds made with a knife at the stalk (Example 4); assay type: in vivo; settings: for mould growth on banana clusters: after 15 days of incubation, 3 banana clusters; for Number of clusters showing severe mould growth/Total number of clusters: after 15 days, freshly harvested, 3 clusters, 2 wounds per cluster at the stalk
Description: as §1, §2
(§3) The experiment described in this example was done identically compared to the experiment described in Example 3, with the proviso that bananas were harvested and thereafter new wounds were made with a knife at the stalk of the banana clusters (2 wounds were made per cluster).

[5] = test system: Colletotridcum musae CBS19231; test: Treatment of bananas, Neocryl and xanthan instead of Bond and Zipper (Example 5); assay type: in vivo; settings: after 15 days; for wounds showing mould growth: 12 wounds; for Number of wounds showing mould growth/Total number of wounds: Neocryl 21.3 g/l and xanthan 1.0 g/l, 12 wounds (6 bananas with 2 wounds per banana)
Description: as §1
The experiment described herein was executed as described in Example 1. However, in this experiment the sticking agent Bond® and the surfactant Zipper® were not used; instead Neocryl® (DSM) and xanthan were applied in a concentration of respectively 21.3 g/l and 1.0 g/l. In this experiment 12 wounds were made instead of 6 (2 wounds per banana; 6 bananas wounded).

[6] = test system: Colletotridcum musae CBS19231; test: Treatment of banana clusters wounded at the hand, Neocryl and xanthan instead of Bond and Zipper (Example 6); assay type: in vivo; settings: for wounds with mould growth: after 15 days of incubation, 6 wounds; for Number of wounds showing mould growth/Total number of wounds: after 15 days, Neocryl 21.3 g/l and xanthan 1.0 g/l, 6 wounds (3 clusters, 2 wounds per cluster at the hand)
Description: as §1, §2, §3
The experiment described herein was executed as described in Example 4, with the proviso that the sticking agent Bond® and the surfactant Zipper® were replaced by Neocryl® (DSM) and xanthan in a concentration of respectively 21.3 g/l and 1.0 g/l. Three clusters comprising 4 bananas each were wounded two times at the hand of the cluster resulting in a total number of wounds of 6.

moulds on bananas = settings: in vivo; cited from earlier work

| Compound | Number of wounds showing mould growth/Total number of wounds [1] | wounds showing mould growth [1] | wounds/bananas with mould growth [2] | Number of wounds showing mould growth/Total number of wounds [2] | bananas of the clusters on which moulds were observed [3] | Number of bananas showing mould growth/Total number of bananas [3] | mould growth on banana clusters [4] | Number of clusters showing severe mould growth/Total number of clusters [4] | wounds showing mould growth [5] [%] | Number of wounds showing mould growth/Total number of wounds [5] | wounds with mould growth [6] | Number of wounds showing mould growth/Total number of wounds [6] | control of moulds on bananas (moulds on bananas) | spectrum of action (moulds on bananas) |
| --- | --- | --- | --- | --- | --- | --- | --- | --- | --- | --- | --- | --- | --- | --- |
| C[C@@H]1C/C=C/C=C/C=C/C=C/[C@H](O[C@@H]2O[C@H](C)[C@@H](O)[C@H](N)[C@@H]2O)C[C@@H]2O[C@](O)(C[C@@H](O)C[C@H]3O[C@@H]3/C=C/C(=O)O1)C[C@H](O)[C@H]2C(=O)O [Composition c, natamycin] | 6/6 | 6 | 2 of 3 | 2/3 | all bananas | 12/12 | in all of the natamycin treated banana clusters | 3/3 | 50 | 6/12 | all wounds | 6/6 | not sufficiently active | broad spectrum action |
| potassium phosphite [Composition d] | 5/6 | 5 out of 6 | all wounds | 3/3 | all bananas | 12/12 | 2 of the 3 | 2/3 | 25 | 3/12 | all wounds | 6/6 | – | – |
